For 25 compounds, T/C results are on record in PubChem BioAssay AID248 (DTP/NCI, 2004).

Where “and” joins values, the source holds several entries; their conditions need not be identical. Identical values can stand only once. Inconclusive results and toxic doses are left out.

In this experiment the test system is L1210 leukemia ip in BDF1 mice, survival T/C. Put plainly: NCI In Vivo Anticancer Drug Screen. Data for tumor model L1210 Leukemia (intraperitoneal) in B6D2F1 (BDF1) mice. The following applies: endpoint: mean survival time, higher = longer survival. The procedure, abridged:
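Transplanted-tumor mice were given test agent; controls received vehicle only. Survival readings from the two groups were divided (treated over control).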

The mark [1] stands for this setting: dose: 100.0 mg/kg/injection, schedule: Q04DX003 (ip), vehicle: Klucel (hydroxypropylcellulose) (HPC).
[2] abbreviates: dose: 200.0 mg/kg/injection, schedule: Q04DX003 (ip), vehicle: Klucel (hydroxypropylcellulose) (HPC).
Setting [3] is: dose: 400.0 mg/kg/injection, schedule: Q04DX003 (ip), vehicle: Klucel (hydroxypropylcellulose) (HPC).
The mark [4] stands for this setting: dose: 100.0 mg/kg/injection, schedule: Q01DX001 (ip), vehicle: Klucel (hydroxypropylcellulose) (HPC).
The mark [5] stands for this setting: dose: 100.0 mg/kg/injection, schedule: Q01DX001 (ip), vehicle: saline.
The mark [6] stands for this setting: dose: 200.0 mg/kg/injection, schedule: Q01DX001 (ip), vehicle: saline.
Where [7] appears, read: dose: 400.0 mg/kg/injection, schedule: Q01DX001 (ip), vehicle: saline.
Where [8] appears, read: dose: 100.0 mg/kg/injection, schedule: Q01DX001 (ip), vehicle: other.
Setting [9] is: dose: 200.0 mg/kg/injection, schedule: Q01DX001 (ip), vehicle: other.
[10] abbreviates: dose: 400.0 mg/kg/injection, schedule: Q01DX001 (ip), vehicle: other.
The mark [11] stands for this setting: dose: 100.0 mg/kg/injection, schedule: Q04DX003 (ip), vehicle: saline with Tween-80.
The mark [12] stands for this setting: dose: 200.0 mg/kg/injection, schedule: Q01DX009 (ip), vehicle: saline with Tween-80.
Setting [13] is: dose: 400.0 mg/kg/injection, schedule: Q04DX003 (ip), vehicle: saline with Tween-80.
Where [14] appears, read: dose: 100.0 mg/kg/injection, schedule: Q01DX009 (ip), vehicle: Klucel (hydroxypropylcellulose) (HPC).
[15] abbreviates: dose: 100.0 mg/kg/injection, schedule: Q04DX002 (ip), vehicle: Klucel (hydroxypropylcellulose) (HPC).
[16] abbreviates: dose: 75.0 mg/kg/injection, schedule: Q01DX001 (ip), vehicle: carboxymethylcellulose (CMC).
The mark [17] stands for this setting: dose: 150.0 mg/kg/injection, schedule: Q01DX001 (ip), vehicle: carboxymethylcellulose (CMC).
The mark [18] stands for this setting: dose: 300.0 mg/kg/injection, schedule: Q01DX001 (ip), vehicle: carboxymethylcellulose (CMC).

As for `CCCCCCCCC(=O)N(CCCC)CCCC`, the T/C by setting is: (dose: 100.0 mg/kg/injection, schedule: Q01DX009 (ip), vehicle: carboxymethylcellulose (CMC)) 97 % of control and 100 % of control; (dose: 100.0 mg/kg/injection, schedule: Q04DX002 (ip), vehicle: carboxymethylcellulose (CMC)) 94 % of control; (dose: 200.0 mg/kg/injection, schedule: Q01DX009 (ip), vehicle: carboxymethylcellulose (CMC)) 93 % of control and 100 % of control; (dose: 200.0 mg/kg/injection, schedule: Q04DX002 (ip), vehicle: carboxymethylcellulose (CMC)) 93 % of control; (dose: 400.0 mg/kg/injection, schedule: Q01DX009 (ip), vehicle: carboxymethylcellulose (CMC)) 89 % of control; (dose: 400.0 mg/kg/injection, schedule: Q04DX002 (ip), vehicle: carboxymethylcellulose (CMC)) 93 % of control.

Turning to `O=c1[nH]ncn1-c1ccccc1`, the T/C under setting [1] is 96 % of control, the T/C under setting [2] is 92 % of control and the T/C under setting [3] is 91 % of control.

As for `CC1(C)C2=CCCCC2CC/C1=N\O` (stereo not drawn), the T/C was 105 % of control under setting [4]; 105 % of control (dose: 200.0 mg/kg/injection, schedule: Q01DX001 (ip), vehicle: Klucel (hydroxypropylcellulose) (HPC)); 100 % of control (dose: 400.0 mg/kg/injection, schedule: Q01DX001 (ip), vehicle: Klucel (hydroxypropylcellulose) (HPC)).

In the case of `O=[N+]([O-])c1ccccc1C1=Cc2cccn2-c2ccccc2S1(=O)=O`, the T/C is, setting by setting: under setting [1], 95 % of control; under setting [2], 100 % of control.

Take `CCOC(=O)C(C(=O)OCC)C(=O)OCC`: the T/C was 102 % of control under setting [5], 102 % of control under setting [6] and 105 % of control under setting [7].

Turning to `O=S(=O)(Nc1ccccn1)c1ccc(N(CCCl)CCCl)cc1`, the T/C is 95 % of control under setting [8], 103 % of control under setting [9] and 106 % of control under setting [10].

As to `O=C1CCCc2[nH]c(=O)ccc21`, the T/C under setting [5] was 101 % of control, the T/C under setting [6] is 94 % of control and the T/C under setting [7] is 96 % of control.

Turning to `NC(=O)c1cc([N+](=O)[O-])ccc1N=NN(CCCl)CCCl`, the T/C under setting [11] was 114 % of control; the T/C (dose: 177.0 mg/kg/injection, schedule: Q04DX003 (ip), vehicle: saline with Tween-80) is 111 % of control; the T/C under setting [12] was 107 % of control; the T/C (dose: 266.0 mg/kg/injection, schedule: Q04DX003 (ip), vehicle: saline with Tween-80) was 114 % of control; the T/C under setting [13] was 165 % of control.

As to `O=C(Oc1ccccc1)C1OC1c1ccccc1` (stereo not drawn), the T/C (dose: 100.0 mg/kg/injection, schedule: Q04DX003 (ip), vehicle: alcohol) was 103 % of control; the T/C (dose: 200.0 mg/kg/injection, schedule: Q04DX003 (ip), vehicle: alcohol) was 98 % of control; the T/C (dose: 400.0 mg/kg/injection, schedule: Q04DX003 (ip), vehicle: alcohol) was 105 % of control.

Turning to `Cc1cccc(NC(=O)/C=C/c2ccccc2)n1`, the T/C runs as follows: (dose: 25.0 mg/kg/injection, schedule: Q01DX009 (ip), vehicle: Klucel (hydroxypropylcellulose) (HPC)) 96 % of control; (dose: 50.0 mg/kg/injection, schedule: Q01DX009 (ip), vehicle: Klucel (hydroxypropylcellulose) (HPC)) 89 % of control; under setting [14], 103 % of control and 91 % of control; under setting [15], 91 % of control.

Turning to `CCOC(=O)/C=C(/OC(=O)c1ccccc1)c1ccccc1`, the T/C reads like this: (dose: 100.0 mg/kg/injection, schedule: Q01DX001 (ip), vehicle: acetone) 95 % of control; (dose: 100.0 mg/kg/injection, schedule: Q01DX009 (ip), vehicle: saline) 107 % of control; (dose: 200.0 mg/kg/injection, schedule: Q01DX001 (ip), vehicle: acetone) 97 % of control; (dose: 200.0 mg/kg/injection, schedule: Q01DX009 (ip), vehicle: saline) 107 % of control; (dose: 400.0 mg/kg/injection, schedule: Q01DX001 (ip), vehicle: acetone) 103 % of control; (dose: 400.0 mg/kg/injection, schedule: Q01DX009 (ip), vehicle: saline) 94 % of control.

As to `O=C(O)CCOc1ccccc1Cl`, the T/C (dose: 100.0 mg/kg/injection, schedule: Q01DX009 (ip), vehicle: saline with Tween-80) is 91 % of control; the T/C under setting [15] is 98 % of control; the T/C under setting [12] was 95 % of control; the T/C (dose: 200.0 mg/kg/injection, schedule: Q04DX002 (ip), vehicle: Klucel (hydroxypropylcellulose) (HPC)) was 95 % of control; the T/C (dose: 400.0 mg/kg/injection, schedule: Q01DX009 (ip), vehicle: saline with Tween-80) is 93 % of control; the T/C (dose: 400.0 mg/kg/injection, schedule: Q04DX002 (ip), vehicle: Klucel (hydroxypropylcellulose) (HPC)) is 106 % of control.

As to `CC(C)C(C(=O)O)N1C(=O)C2C3C=CC(C3)C2C1=O` (stereo not drawn), the T/C reads like this: under setting [11], 102 % of control; (dose: 200.0 mg/kg/injection, schedule: Q04DX003 (ip), vehicle: saline with Tween-80) 102 % of control; under setting [13], 97 % of control.

Turning to `NC(=O)C1C(=O)OC2(CC2)C1c1ccccc1` (stereo not drawn), the T/C runs as follows: under setting [5], 86 % of control; under setting [6], 93 % of control.

`OCC1OC(n2c(=S)[nH]c3ccccc32)C(O)C1O` (stereo not drawn): the T/C was 108 % of control under setting [5], 100 % of control under setting [6] and 106 % of control under setting [7].

On to `Nc1ncc(CO)c(N)n1`, for which the T/C by setting is: (dose: 25.0 mg/kg/injection, schedule: Q01DX001 (ip), vehicle: Klucel (hydroxypropylcellulose) (HPC)) 100 % of control; (dose: 50.0 mg/kg/injection, schedule: Q01DX001 (ip), vehicle: Klucel (hydroxypropylcellulose) (HPC)) 98 % of control; under setting [4], 98 % of control and 100 % of control.

Turning to `CC(O)COC(C)C` (stereo not drawn), the T/C is 98 % of control under setting [5], 89 % of control under setting [6] and 96 % of control under setting [7].

Regarding `CC(C)/C=N/NP(Br)(c1ccccc1)(c1ccccc1)c1ccccc1`, the T/C under setting [16] is 93 % of control, the T/C under setting [17] was 95 % of control and the T/C under setting [18] is 102 % of control.

With `CC(C)CSC(SCC(C)C)C(O)C(O)C(O)CO` (stereo not drawn), the T/C is 98 % of control under setting [16], 109 % of control under setting [17] and 97 % of control under setting [18].

On to `O=C(c1ccccc1)c1c2ccccc2c(-c2ccccc2)c2ccccc12`, for which the T/C under setting [14] was 101 % of control; the T/C under setting [1] is 92 % of control; the T/C (dose: 200.0 mg/kg/injection, schedule: Q01DX009 (ip), vehicle: Klucel (hydroxypropylcellulose) (HPC)) is 103 % of control; the T/C under setting [2] is 89 % of control; the T/C (dose: 400.0 mg/kg/injection, schedule: Q01DX009 (ip), vehicle: Klucel (hydroxypropylcellulose) (HPC)) is 92 % of control; the T/C under setting [3] is 90 % of control.

Take `CC(=O)Nc1c(I)cc(I)c(C(=O)O)c1I`: the T/C reads like this: (dose: 100.0 mg/kg/injection, schedule: Q04DX003 (ip), vehicle: saline sonified) 98 % of control; (dose: 200.0 mg/kg/injection, schedule: Q04DX003 (ip), vehicle: saline sonified) 101 % of control; (dose: 400.0 mg/kg/injection, schedule: Q04DX003 (ip), vehicle: saline sonified) 103 % of control.

For `CCOP(=O)(OCC)c1ccc(N=Cc2cnc3nc(NC(C)=O)[nH]c(=O)c3n2)cc1`, the T/C runs as follows: under setting [8], 109 % of control; under setting [9], 112 % of control; under setting [10], 101 % of control.

As to `CCOC(=O)c1c(C)[nH]c(C)c1-c1ccccc1`, the T/C reads like this: under setting [1], 112 % of control; under setting [2], 104 % of control; under setting [3], 105 % of control.

In the case of `Nc1nc2nc(N=Nc3ccc(S(=O)(=O)N(CCCl)CCCl)cc3)[nH]c2c(=O)[nH]1`, the T/C runs as follows: under setting [1], 93 % of control; under setting [2], 87 % of control; under setting [3], 96 % of control.

`CCCN(CCC)N=Nc1ccccc1-c1nc(N)c2ccccc2n1`: the T/C is 106 % of control under setting [1], 98 % of control under setting [2] and 101 % of control under setting [3].
